Data on 12 sequences can be found in PMC10046687, “Residues of Legume AG41 Peptide Crucial to Its Bio-Insecticidal Activity” (Biomolecules, 2023).

Where two headings read alike, the source gives them in different places. Bridge positions count the residues as written; N and C are the ends. Ends that are not written are not given here.

Assay [1] relates to Spodoptera frugiperda Sf9 insect cells. Briefly: Viability assay (MTT) on cultured Sf9 insect cells. The class given is cell-based. The following applies: 24 h exposure, 27 °C, each concentration in triplicate, mean ± standard error, SEM. On the procedure: Viability assays were performed on Spodoptera frugiperda Sf9 insect cells in culture using the 3-(4,5-dimethylthiazol-2-yl)-2,5-diphenyltetrazolium bromide (MTT) protocol. Briefly, Sf9 cells lines were grown at 27 °C in Lonza’s culture medium, supplemented with 5% fetal bovine serum (FBS) and 0.1% gentamicin. Sf9 cells were seeded, in 96-well plates, 24 h prior to the experiments (15,000 cells/well) and were exposed to increasing concentrations of AG41 and its alanine mutant peptides for 24 h. Each concentration was performed in triplicate. Cell viability was determined by a colorimetric assay based on the ability of viable cells to reduce MTT. Cells were loaded with MTT solution (0.5 mg ml^−^1) and incubated at 27 °C for 2 h. Cell homogenates were used to measure absorbance at 550 nm using a microplate reader (MR 7000, Dynatech Laboratories Inc., Richmond, CA, USA).
(§1) The experimental Ki and LD5O data were assessed separately by non-linear regression analysis using the SIMFIT software package. Biological results are expressed as mean ± S.E. (standard error).

The next assay has as its target PA1b receptor. Put plainly: Competitive ligand binding with 125I-PA1b on microsomal protein. The following applies: competition with 0.4 nM 125I-PA1b, 20 µg microsomal protein per assay, peptide 0.01 to 1000 nM, mean ± standard error, read-out: Ki (affinity to the PA1b receptor). As to the method:
To evaluate the affinity of synthetic AG41 and its mutants to PA1b receptor, ligand binding studies were conducted ^125I-toxin [29]. […] Total binding was assessed using 20 µg per assay of microsomal protein (sedimenting at 45,000 g) and 0.4 nM of I^125-PA1b, while in the non-specific binding assays 1000 nM of unlabeled AG41 or alanine mutant peptide was added. The level of specific binding (i.e., total binding minus non-specific binding) was estimated based on three replicates. Competitive experiments were performed with 0.4 nM ^125I-PA1b (specific radioactivity of approximately 1000 Ci.mmol^−1) and competition was performed with AG41 and its alanine mutant peptides at concentrations ranging from 0.01 to 1000 nM.
as §1

“ASCPNVGAVCSPFETKPCGNVKDCRCLPAGLFFGTCINPTG (disulfide 3-24, 10-26, 18-36) [W29A]”: in assay [1], the “LD50 (insect cell toxicity)” value is 89.0 ± 3.7 nM. The Ki (in general, a dissociation constant, usually derived from enzyme kinetics or from competition with a known ligand) at PA1b receptor (SEM) came out at 36.3 ± 6.7 nM.

Consider “ASCPNVGAVCSPFETKPCGNVKDCRCAPWGLFFGTCINPTG (disulfide 3-24, 10-26, 18-36) [L27A]”, for which the “LD50 (insect cell toxicity)” value in assay [1] was found to be 907 ± 46 nM. Also, at PA1b receptor (SEM), the Ki is 486 ± 11 nM.

For “ASCPNVGAVCSPFETAPCGNVKDCRCLPWGLFFGTCINPTG (disulfide 3-24, 10-26, 18-36) [K16A]”, the “LD50 (insect cell toxicity)” value in assay [1] is on record as 10.0 ± 4.0 nM. At PA1b receptor (SEM), the Ki was 3.6 ± 1.6 nM.

In the case of “ASCPNVGAVCSPFETKPCGNVKDCACLPWGLFFGTCINPTG (also: bicyclic or more (positions not given here)) [R25A, single point alanine mutant of AG41 at Arg-25]”, the inhibitory constant (Ki) on PA1b receptor was over 1000 nM.

For the sequence “ASCPNVGAVCSPFETKPCGNVKDCRCLPWGLFAGTCINPTG (disulfide 3-24, 10-26, 18-36) [F33A]”, the “LD50 (insect cell toxicity)” value in assay [1] is recorded as 210 ± 8 nM. Moreover, the Ki on PA1b receptor (SEM) stood at 15 ± 4.8 nM.

Consider “ASCPNVGAVCSPFETKPCGNVKDCRCLPWGLAFGTCINPTG (disulfide 3-24, 10-26, 18-36) [F32A]”, for which, in assay [1], the “LD50 (insect cell toxicity)” value was found to be 122 ± 12 nM. The Ki on PA1b receptor (SEM) turned out to be 39.8 ± 15 nM.

For “ASCPNVGAVCSPFETKPCGNVKDCRCLPWGLFFGTCINPTG (disulfide 3-24, 10-26, 18-36) [AG41]”, the “LD50 (insect cell toxicity)” value in assay [1] amounted to 5.6 ± 1.8 nM. In addition, the Ki on PA1b receptor (SEM) was 1.3 ± 0.6 nM.

“ASCPNVGAVCSPFETKPCGNVKACRCLPWGLFFGTCINPTG (disulfide 3-24, 10-26, 18-36) [D23A]”: the “LD50 (insect cell toxicity)” value in assay [1] is recorded as 24 ± 9 nM. At PA1b receptor (SEM), the Ki stood at 1.2 ± 1.6 nM.

“ASCPNVGAVCSPFETKPCGNVKDCRCLPWGAFFGTCINPTG (also: bicyclic or more (positions not given here)) [L31A, single point alanine mutant of AG41 at Leu-31]”: at PA1b receptor (SEM), the Ki turned out to be 263 ± 8 nM.

“ASCPNVGAVCSPAETKPCGNVKDCRCLPWGLFFGTCINPTG (also: bicyclic or more (positions not given here)) [F13A, single point alanine mutant of AG41 at Phe-13]”: at PA1b receptor, the Ki is over 1000 nM.

Regarding “ASCPNVGAVCSPFETKPCGNVADCRCLPWGLFFGTCINPTG (disulfide 3-24, 10-26, 18-36) [K22A]”, in assay [1], the “LD50 (insect cell toxicity)” value worked out at 14.2 ± 6.3 nM. Besides, at PA1b receptor (SEM), the Ki was 3.2 ± 1.7 nM.

Turning to “ASCPNVGAVCSPFATKPCGNVKDCRCLPWGLFFGTCINPTG (also: bicyclic or more (positions not given here)) [E14A, single point alanine mutant of AG41 at Glu-14]”, the Ki at PA1b receptor (SEM) worked out at 1.2 ± 1.3 nM.
